This passage reports AC50 results from ChEMBL document CHEMBL5291721, “A preclinical secondary pharmacology resource illuminates target-adverse drug reaction associations of marketed drugs” (Nat Commun, 2023).

As a reminder, the AC50 is the concentration giving half of the maximal activity seen. Higher therefore signals activity only at high concentration.

The target of assay [1] is T1, 5-hydroxytryptamine receptor 1A (Homo sapiens, UniProt P08908).
T1 sequence (P08908 whole entry): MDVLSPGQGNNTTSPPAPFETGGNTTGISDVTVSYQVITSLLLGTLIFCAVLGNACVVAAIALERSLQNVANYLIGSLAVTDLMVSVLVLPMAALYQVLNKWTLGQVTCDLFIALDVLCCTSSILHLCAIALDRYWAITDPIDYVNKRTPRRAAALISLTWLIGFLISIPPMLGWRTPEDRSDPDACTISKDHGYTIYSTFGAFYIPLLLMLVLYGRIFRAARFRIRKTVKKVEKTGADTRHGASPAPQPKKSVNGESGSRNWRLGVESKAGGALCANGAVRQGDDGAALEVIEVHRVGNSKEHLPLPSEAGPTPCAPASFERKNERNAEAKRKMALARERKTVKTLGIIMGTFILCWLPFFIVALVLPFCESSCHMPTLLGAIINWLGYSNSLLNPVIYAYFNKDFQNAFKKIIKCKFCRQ

Another assay addresses Cannabinoid receptor 1 (Homo sapiens, UniProt P21554).
For another assay, the target named is T2, Estrogen receptor (Homo sapiens, UniProt P03372).
T2 sequence (P03372 whole entry): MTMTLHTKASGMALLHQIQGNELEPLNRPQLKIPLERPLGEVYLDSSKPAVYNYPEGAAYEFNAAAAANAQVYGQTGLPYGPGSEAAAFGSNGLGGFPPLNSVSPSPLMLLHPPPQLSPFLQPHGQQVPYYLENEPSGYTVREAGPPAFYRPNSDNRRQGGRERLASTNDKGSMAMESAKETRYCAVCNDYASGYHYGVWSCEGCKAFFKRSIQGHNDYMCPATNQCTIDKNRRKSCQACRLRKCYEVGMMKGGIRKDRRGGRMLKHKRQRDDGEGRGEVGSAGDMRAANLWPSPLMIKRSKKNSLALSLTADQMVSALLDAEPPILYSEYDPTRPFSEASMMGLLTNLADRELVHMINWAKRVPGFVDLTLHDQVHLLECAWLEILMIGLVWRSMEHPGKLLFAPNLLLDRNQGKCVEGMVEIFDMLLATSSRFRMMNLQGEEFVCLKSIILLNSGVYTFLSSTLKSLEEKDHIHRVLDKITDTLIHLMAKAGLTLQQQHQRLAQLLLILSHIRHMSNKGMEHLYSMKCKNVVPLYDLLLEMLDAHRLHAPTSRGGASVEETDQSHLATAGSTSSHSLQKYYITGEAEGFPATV

Assay [2] concerns the target Beta-3 adrenergic receptor (Homo sapiens, UniProt P13945).
The target of assay [3] is Neurotensin receptor type 1 (Homo sapiens, UniProt P30989).
The target in assay [4] is T3, Alpha-1A adrenergic receptor (Homo sapiens, UniProt P35348).
T3 sequence (P35348 whole entry): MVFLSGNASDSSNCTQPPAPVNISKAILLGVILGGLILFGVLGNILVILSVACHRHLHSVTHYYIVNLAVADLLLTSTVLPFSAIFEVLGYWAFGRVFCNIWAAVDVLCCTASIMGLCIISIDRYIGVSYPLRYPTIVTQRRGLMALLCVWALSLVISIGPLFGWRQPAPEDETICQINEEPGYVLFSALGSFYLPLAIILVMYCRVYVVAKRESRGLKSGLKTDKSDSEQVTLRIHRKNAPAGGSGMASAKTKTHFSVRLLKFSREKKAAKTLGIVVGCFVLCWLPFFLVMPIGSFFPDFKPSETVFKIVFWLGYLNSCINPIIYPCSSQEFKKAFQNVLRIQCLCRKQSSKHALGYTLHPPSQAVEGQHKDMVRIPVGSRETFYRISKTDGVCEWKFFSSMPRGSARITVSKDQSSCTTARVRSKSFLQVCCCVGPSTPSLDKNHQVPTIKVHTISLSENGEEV

The target of the next assay is T4, B1 bradykinin receptor (Homo sapiens, UniProt P46663).
T4 sequence (P46663 whole entry): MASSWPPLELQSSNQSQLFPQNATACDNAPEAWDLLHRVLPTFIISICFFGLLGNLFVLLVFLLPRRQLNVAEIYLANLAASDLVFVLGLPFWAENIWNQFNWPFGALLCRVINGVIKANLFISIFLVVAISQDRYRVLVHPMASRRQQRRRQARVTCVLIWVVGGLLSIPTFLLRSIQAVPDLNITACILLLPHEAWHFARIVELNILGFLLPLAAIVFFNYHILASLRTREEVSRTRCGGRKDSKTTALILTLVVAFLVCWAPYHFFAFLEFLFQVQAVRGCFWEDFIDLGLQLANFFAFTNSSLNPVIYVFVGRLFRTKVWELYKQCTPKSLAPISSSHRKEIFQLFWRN

Another assay concerns the target Histamine H1 receptor (Homo sapiens, UniProt P35367).
The target in assay [5] is T5, Muscarinic acetylcholine receptor M1 (Homo sapiens, UniProt P11229).
T5 sequence (P11229 whole entry): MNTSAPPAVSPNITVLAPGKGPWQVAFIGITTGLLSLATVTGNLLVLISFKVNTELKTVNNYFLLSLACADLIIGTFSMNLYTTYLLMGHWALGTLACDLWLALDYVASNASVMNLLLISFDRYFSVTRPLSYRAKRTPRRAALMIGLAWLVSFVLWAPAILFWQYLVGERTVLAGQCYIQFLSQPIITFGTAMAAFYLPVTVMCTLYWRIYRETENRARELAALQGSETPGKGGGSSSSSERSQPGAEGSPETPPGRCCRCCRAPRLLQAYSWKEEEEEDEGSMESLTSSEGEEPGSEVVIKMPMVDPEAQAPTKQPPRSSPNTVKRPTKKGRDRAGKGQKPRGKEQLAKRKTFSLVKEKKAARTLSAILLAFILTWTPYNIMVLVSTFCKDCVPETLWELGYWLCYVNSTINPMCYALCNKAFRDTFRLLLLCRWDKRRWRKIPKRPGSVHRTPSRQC
The assay is classed as functional.

Assay [6] deals with Muscarinic acetylcholine receptor M3 (Homo sapiens, UniProt P20309).
Note: assay procedure not described here.

Sequence of Muscarinic acetylcholine receptor M3 (P20309 whole entry): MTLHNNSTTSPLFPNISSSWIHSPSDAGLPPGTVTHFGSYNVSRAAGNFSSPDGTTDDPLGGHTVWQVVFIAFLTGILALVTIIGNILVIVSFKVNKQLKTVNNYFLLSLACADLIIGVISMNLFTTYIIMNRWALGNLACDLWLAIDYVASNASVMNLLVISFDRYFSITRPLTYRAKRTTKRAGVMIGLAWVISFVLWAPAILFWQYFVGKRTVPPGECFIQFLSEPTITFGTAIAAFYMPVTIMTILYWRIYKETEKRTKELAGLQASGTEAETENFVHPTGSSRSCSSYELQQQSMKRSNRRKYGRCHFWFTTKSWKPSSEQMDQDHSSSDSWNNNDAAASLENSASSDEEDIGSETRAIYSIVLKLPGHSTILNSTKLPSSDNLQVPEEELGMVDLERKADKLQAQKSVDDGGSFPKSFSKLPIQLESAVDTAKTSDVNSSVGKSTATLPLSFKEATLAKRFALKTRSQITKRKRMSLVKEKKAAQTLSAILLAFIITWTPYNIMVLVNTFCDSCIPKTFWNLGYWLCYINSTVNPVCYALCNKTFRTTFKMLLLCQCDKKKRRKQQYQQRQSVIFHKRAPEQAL
Sequence of Cannabinoid receptor 1 (P21554 whole entry): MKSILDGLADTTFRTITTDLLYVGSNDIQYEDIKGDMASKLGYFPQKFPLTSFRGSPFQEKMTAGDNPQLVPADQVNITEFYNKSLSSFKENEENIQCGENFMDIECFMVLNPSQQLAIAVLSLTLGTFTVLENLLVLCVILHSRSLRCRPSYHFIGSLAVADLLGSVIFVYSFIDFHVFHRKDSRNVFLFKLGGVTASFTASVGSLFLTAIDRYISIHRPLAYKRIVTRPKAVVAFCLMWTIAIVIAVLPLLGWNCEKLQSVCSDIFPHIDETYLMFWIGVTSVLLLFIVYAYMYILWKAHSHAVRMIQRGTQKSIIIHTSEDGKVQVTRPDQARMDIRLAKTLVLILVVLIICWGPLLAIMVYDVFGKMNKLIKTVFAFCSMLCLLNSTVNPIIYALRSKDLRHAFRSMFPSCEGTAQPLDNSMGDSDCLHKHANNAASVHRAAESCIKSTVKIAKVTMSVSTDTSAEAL
Sequence of Beta-3 adrenergic receptor (P13945 whole entry): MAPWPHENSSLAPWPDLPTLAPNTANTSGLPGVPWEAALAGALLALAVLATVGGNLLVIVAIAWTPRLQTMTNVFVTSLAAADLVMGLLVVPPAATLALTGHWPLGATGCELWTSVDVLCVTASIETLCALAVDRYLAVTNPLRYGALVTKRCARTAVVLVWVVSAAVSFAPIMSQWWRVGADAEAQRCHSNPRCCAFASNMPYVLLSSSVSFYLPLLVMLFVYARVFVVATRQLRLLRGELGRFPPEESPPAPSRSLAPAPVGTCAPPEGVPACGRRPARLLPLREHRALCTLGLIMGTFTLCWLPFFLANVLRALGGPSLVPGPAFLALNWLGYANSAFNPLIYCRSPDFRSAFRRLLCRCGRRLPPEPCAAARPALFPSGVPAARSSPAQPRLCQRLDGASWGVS
Sequence of Neurotensin receptor type 1 (P30989 whole entry): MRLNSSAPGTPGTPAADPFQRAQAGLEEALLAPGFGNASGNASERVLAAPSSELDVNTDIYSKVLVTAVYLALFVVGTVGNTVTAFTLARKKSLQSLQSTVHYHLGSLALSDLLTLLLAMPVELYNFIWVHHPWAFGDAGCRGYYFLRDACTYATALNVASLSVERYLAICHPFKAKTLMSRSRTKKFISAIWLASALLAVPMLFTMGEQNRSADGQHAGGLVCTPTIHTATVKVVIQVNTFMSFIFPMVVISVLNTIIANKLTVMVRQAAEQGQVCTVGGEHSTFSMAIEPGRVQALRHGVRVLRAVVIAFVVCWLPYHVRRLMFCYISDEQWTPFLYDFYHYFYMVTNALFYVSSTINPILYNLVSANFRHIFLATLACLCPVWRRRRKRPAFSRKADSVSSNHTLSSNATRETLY
Sequence of Histamine H1 receptor (P35367 whole entry): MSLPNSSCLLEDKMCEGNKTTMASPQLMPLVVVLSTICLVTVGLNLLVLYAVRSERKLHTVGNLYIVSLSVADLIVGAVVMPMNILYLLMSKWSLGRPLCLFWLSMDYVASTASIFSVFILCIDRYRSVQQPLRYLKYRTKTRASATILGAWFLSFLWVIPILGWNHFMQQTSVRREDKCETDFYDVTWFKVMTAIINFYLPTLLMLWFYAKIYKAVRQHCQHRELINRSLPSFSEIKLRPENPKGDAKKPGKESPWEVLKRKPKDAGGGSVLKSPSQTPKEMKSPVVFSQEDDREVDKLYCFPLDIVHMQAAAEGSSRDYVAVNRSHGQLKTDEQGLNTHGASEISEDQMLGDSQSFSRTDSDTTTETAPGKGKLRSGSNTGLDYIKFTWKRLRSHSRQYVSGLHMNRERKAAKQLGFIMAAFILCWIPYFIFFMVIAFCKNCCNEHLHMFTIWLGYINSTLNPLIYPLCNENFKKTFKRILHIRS

Turning to `Cc1ccc(C)c(OCCCC(C)(C)C(=O)O)c1` [GEMFIBROZIL], the AC50 in [1] was greater than 10 µM; at Cannabinoid receptor 1 it was greater than 10 µM; at Estrogen receptor it was greater than 30 µM; in [2], greater than 30 µM; in assay [3], greater than 30 µM; in assay [4] it was 13.7 µM. The molecule also registered an AC50 at B1 bradykinin receptor greater than 30 µM.
Consider `CC[C@H](C)C(=O)O[C@H]1C[C@@H](C)C=C2C=C[C@H](C)[C@H](CC[C@@H]3C[C@@H](O)CC(=O)O3)[C@H]21` [LOVASTATIN], for which the AC50 in assay [1] is greater than 10 µM; at Cannabinoid receptor 1, greater than 10 µM; on Estrogen receptor it was greater than 30 µM; in assay [2] it was 11.6 µM; in [3], greater than 30 µM; in assay [4] it was greater than 10 µM. The same molecule returned an AC50 at B1 bradykinin receptor greater than 30 µM.
For `CC(C)[C@H](N)C(=O)OCCOCn1cnc2c(=O)[nH]c(N)nc21` [VALACYCLOVIR], the AC50 is greater than 10 µM in [1]; greater than 10 µM at Cannabinoid receptor 1; greater than 30 µM on Estrogen receptor; greater than 30 µM in assay [2]; greater than 30 µM in assay [3]; greater than 10 µM in assay [4]. Further, the AC50 at B1 bradykinin receptor is greater than 30 µM.
Consider `CCCc1nc2c(C)cc(-c3nc4ccccc4n3C)cc2n1Cc1ccc(-c2ccccc2C(=O)O)cc1`, for which the AC50 in assay [1] is greater than 10 µM; on Cannabinoid receptor 1, greater than 30 µM; at Estrogen receptor, greater than 30 µM; on Histamine H1 receptor, greater than 30 µM; in assay [2], greater than 30 µM; in assay [3], greater than 30 µM. The AC50 is greater than 10 µM in assay [4], greater than 30 µM in [5], greater than 30 µM on B1 bradykinin receptor and greater than 30 µM in assay [6].
Regarding `O=C1Cc2cc(CCN3CCN(c4nsc5ccccc45)CC3)c(Cl)cc2N1` [ZIPRASIDONE], the AC50 in [1] is 0.008 µM; at Cannabinoid receptor 1, greater than 10 µM; on Estrogen receptor, greater than 30 µM; in assay [2] it was greater than 30 µM; in assay [3], greater than 30 µM; in [4], 0.0275 µM. In addition, the AC50 is greater than 10 µM in [5], greater than 30 µM on B1 bradykinin receptor and greater than 10 µM in assay [6].
For `CCCNC(=O)NS(=O)(=O)c1ccc(Cl)cc1` [CHLORPROPAMIDE], the AC50 in [1] is greater than 10 µM; on Cannabinoid receptor 1, greater than 10 µM; on Estrogen receptor it was greater than 30 µM; in assay [2], greater than 30 µM; in assay [3], greater than 30 µM; in assay [4], 5.7 µM. The molecule also gave an AC50 at B1 bradykinin receptor greater than 30 µM.
`CCOc1nc2cccc(C(=O)O)c2n1Cc1ccc(-c2ccccc2-c2nnn[nH]2)cc1`: the AC50 in assay [1] was greater than 10 µM; at Cannabinoid receptor 1, greater than 10 µM; on Estrogen receptor it was greater than 30 µM; in [2], greater than 30 µM; in [3] it was greater than 30 µM; in assay [4], greater than 10 µM. Further, the AC50 at B1 bradykinin receptor was greater than 30 µM.
On to `O=C(O)Cc1ccccc1Oc1ccc(Cl)cc1Cl` [FENCLOFENAC], for which the AC50 was greater than 10 µM in assay [1]; greater than 10 µM on Cannabinoid receptor 1; greater than 30 µM at Estrogen receptor; greater than 10 µM on Histamine H1 receptor; greater than 30 µM in [2]; greater than 30 µM in assay [3]. The concentration at half-maximal activity (AC50) in assay [4] was greater than 10 µM; in assay [5], greater than 10 µM; at B1 bradykinin receptor, greater than 30 µM; in assay [6] it was greater than 10 µM.
Turning to `CC[C@@H](CO)NC(=O)[C@@H]1C=C2c3cccc4c3c(cn4C)C[C@H]2N(C)C1` [METHYSERGIDE], the AC50 in assay [1] was 0.192 µM; on Cannabinoid receptor 1, greater than 10 µM; on Estrogen receptor, greater than 10 µM; in [2] it was greater than 30 µM; in [3], greater than 30 µM; in assay [4], greater than 10 µM. The molecule also displayed an AC50 at B1 bradykinin receptor greater than 30 µM.
